Structures are written as SMILES.

The record followed here is patent US20220144847A1, “HETEROCYCLIC COMPOUND, PHARMACEUTICAL COMPOSITION COMPRISING SAME, PREPARATION METHOD THEREFOR, AND USE THEREOF” (Sichuan Kelun-Biotech Biopharmaceutical Co., Ltd., priority 2019, published 2022).

Sequence of VEGFR2 (P35968 20-1356, species assumed): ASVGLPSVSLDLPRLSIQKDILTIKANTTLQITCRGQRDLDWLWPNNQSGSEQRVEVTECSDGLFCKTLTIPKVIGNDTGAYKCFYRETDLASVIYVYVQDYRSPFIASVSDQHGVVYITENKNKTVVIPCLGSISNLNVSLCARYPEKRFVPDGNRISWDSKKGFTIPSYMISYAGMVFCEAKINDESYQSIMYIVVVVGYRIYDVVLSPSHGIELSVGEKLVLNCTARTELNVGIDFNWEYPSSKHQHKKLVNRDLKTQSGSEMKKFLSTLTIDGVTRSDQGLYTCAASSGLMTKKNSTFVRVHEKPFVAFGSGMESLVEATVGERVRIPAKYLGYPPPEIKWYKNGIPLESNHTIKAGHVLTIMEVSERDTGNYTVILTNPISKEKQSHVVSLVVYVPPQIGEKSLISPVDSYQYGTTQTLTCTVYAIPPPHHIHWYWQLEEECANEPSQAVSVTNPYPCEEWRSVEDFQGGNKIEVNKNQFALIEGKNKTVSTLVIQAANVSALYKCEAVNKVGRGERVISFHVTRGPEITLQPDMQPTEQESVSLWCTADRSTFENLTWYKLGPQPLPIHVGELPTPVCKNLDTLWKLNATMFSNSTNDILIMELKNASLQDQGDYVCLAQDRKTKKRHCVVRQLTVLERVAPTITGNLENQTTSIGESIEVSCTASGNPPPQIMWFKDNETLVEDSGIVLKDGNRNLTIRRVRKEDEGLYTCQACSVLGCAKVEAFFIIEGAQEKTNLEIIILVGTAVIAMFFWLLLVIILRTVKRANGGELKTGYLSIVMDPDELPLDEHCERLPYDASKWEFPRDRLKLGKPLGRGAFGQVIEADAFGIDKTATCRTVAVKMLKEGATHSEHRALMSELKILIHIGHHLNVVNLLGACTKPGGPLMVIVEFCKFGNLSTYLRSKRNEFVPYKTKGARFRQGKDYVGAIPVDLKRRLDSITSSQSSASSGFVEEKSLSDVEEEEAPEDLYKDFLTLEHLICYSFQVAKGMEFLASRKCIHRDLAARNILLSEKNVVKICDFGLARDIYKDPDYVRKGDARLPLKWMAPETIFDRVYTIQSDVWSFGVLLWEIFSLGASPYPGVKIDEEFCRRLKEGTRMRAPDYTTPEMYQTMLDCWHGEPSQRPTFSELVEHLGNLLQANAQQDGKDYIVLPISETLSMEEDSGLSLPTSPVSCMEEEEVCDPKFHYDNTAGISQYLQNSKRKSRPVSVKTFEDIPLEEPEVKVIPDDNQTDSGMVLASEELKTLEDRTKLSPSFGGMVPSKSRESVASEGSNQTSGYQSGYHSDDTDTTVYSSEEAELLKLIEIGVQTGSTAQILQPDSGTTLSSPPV
Sequence of RET-V804M (P07949 29-1114 V804M): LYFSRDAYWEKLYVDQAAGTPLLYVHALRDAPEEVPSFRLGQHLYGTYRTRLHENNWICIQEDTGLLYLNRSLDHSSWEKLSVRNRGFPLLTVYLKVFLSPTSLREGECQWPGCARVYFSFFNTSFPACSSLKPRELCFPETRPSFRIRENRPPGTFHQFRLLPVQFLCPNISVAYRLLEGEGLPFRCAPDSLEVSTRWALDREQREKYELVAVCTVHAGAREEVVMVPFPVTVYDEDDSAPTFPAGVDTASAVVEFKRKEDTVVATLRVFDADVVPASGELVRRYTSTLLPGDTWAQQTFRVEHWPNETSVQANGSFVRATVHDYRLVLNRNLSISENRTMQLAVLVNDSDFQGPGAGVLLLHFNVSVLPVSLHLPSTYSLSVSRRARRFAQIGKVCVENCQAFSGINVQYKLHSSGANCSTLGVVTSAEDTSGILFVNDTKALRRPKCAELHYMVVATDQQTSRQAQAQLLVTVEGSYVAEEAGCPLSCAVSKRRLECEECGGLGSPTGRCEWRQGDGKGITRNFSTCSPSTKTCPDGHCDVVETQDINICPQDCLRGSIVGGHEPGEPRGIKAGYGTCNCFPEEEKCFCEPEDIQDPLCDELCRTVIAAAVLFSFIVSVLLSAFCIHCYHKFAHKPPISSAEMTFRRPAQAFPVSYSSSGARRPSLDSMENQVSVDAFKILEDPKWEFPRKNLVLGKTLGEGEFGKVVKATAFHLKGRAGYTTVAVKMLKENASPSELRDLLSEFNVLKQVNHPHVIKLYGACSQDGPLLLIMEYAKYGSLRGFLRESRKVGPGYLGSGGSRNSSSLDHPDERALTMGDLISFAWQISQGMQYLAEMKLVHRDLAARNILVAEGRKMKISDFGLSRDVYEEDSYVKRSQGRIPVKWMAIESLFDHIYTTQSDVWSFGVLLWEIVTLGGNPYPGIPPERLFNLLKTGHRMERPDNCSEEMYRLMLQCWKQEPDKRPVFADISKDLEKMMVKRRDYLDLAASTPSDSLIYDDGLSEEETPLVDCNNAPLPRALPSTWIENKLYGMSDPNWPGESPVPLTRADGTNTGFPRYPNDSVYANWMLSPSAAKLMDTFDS

The first experiment concerns the target VEGFR2 (Homo sapiens, UniProt P35968). In words: VEGFR2 inhibition experiment (HTRF KinEASE-TK kit). The experiment is classed as biochemical. Particulars: 100 nM; read-out: Inhibition rate on VEGFR2. Here is the method: Experimental method: According to the instructions of the HTRF KinEASE-TK kit (Cisbio), the compounds of the present disclosure were tested for their inhibitory effects on the VEGFR2 enzyme activity. After pre-incubation of the VEGFR2 enzyme and different concentrations of test compounds at room temperature for 30 min, a substrate and adenosine triphosphate (ATP) were added to initiate the reaction. After incubation at room temperature for 40 min, TK antibody-cryptate and streptavidin-XL665 were added, and the test was performed after incubation at room temperature for 45 min. With the solvent group (DMSO) as the negative control and the buffer group (without VEGFR2 enzyme) as the blank control, the relative inhibitory activity percentages (i.e., inhibition rates) of different concentrations of the compounds were computed as per the following formula:
(§1) Relative inhibitory activity percentage=1−(compound group of different concentrations−blank control)/(negative control−blank control)*100%
(§2) The relative inhibitory activity percentages of different concentrations of the compounds were plotted with respect to the compound concentrations, and the curve was fitted according to a four-parameter model to compute the IC50 value as per the following formula:
(§3) y=min+(max−min)/(1+(x/IC50)^(−Hillslope))
(§4) where y is the relative inhibitory activity percentage, max is the maximum value of the fitted curve, min is the minimum value of the fitted curve, x is the logarithmic concentration of the compound, and Hillslope is the slope of the curve.
As to `Cc1cc(Nc2cc(C)[nH]n2)nc(-c2ccc(N3CC4CC(C3)N4Cc3ccc(F)cc3)nc2)n1` [Compound 83, 2-(6-(6-(4-fluorobenzyl)-3,6-diazabicyclo[3.1.1]heptan-3-yl)pyridin-3-yl)-6-methyl-N-(5-methyl-1H-pyrazol-3-yl)pyrimidin-4-amine], the inhibition at 0.1 µM amounted to 18%. As for `Cc1ccc(OC2CCN(c3ccc(-c4nc(C)cc(Nc5cc(C)[nH]n5)n4)cn3)CC2)cn1` [Compound 119, 6-methyl-N-(5-methyl-1H-pyrazol-3-yl)-2-(6-(4-((6-methylpyridin-3-yl)oxy)piperidin-1-yl)pyridin-3-yl)pyrimidin-4-amine], the inhibition at 0.1 µM was -7%. Regarding `Cc1cc(Nc2cc(C)[nH]n2)nc(-c2ccc(N3CC4CC(C3)N4Cc3ccc(-n4cc(F)cn4)nc3)nc2)c1` [Compound 6, 6′-(6-((6-(4-fluoro-1H-pyrazol-1-yl)pyridin-3-yl)methyl)-3,6-diazabicyclo[3.1.1]heptan-3-yl)-4-methyl-N-(5-methyl-1H-pyrazol-3-yl)-[2,3′-dipyridyl]-6-amine], the inhibition at 0.1 µM was -11%. The same measure, in the same setting: next, `Cc1cc(Nc2cc(C)[nH]n2)nc(-c2ccc(N3CC4CC(C3)N4C(C)c3ccc(-n4cc(F)cn4)nc3)nc2)n1` (stereo not drawn) [Compound 52, 2-(6-(6-(1-(6-(4-fluoro-1H-pyrazol-1-yl)pyridin-3-yl)ethyl)-3,6-diazabicyclo[3.1.1]heptan-3-yl)pyridin-3-yl)-6-methyl-N-(5-methyl-1H-pyrazol-3-yl)pyrimidin-4-amine]: -5%.

Staying with this experiment, now noted: 300 nM; read-out: Inhibition rate on VEGFR2.
Consider `Cc1cc(Nc2cc(C)[nH]n2)nc(-c2ccc(N3CC4CC(C3)N4C(C)c3ccc(-n4cccn4)nc3)nc2)n1` (stereo not drawn) [Compound 125, 2-(6-(6-(1-(6-(1H-pyrazol-1-yl)pyridin-3-yl)ethyl)-3,6-diazabicyclo[3.1.1]heptan-3-yl)pyridin-3-yl)-6-methyl-N-(5-methyl-1H-pyrazol-3-yl)pyrimidin-4-amine], for which the inhibition at 0.3 µM stood at 44%.

Another experiment addresses RET-V804M (Homo sapiens, UniProt P07949, V804M). In words: RET inhibition experiment (HTRF KinEASE-TK kit), mutant RET-V804M. It is filed as biochemical. Particulars: 10 nM (Table 2); read-out: Inhibition rate on RET-V804M. Here is the method:
Experimental method: According to the instructions of the HTRF KinEASE-TK kit (Cisbio), the compounds of the present disclosure were tested for their inhibitory effects on the activity of wild-type RET enzyme, mutant RET enzyme (RET-V804M, RET-V804L, and RET-M918T) and fusion-type RET enzyme (RET-CCDCl6). After pre-incubation of different RET enzymes and different concentrations of the test compounds at room temperature for 30 min, a substrate and adenosine triphosphate (ATP) were added to initiate the reaction. After incubation at room temperature for 40 min, TK antibody-cryptate and streptavidin-XL665 were added, and the test was performed after incubation at room temperature for 45 min. With the solvent group (DMSO) as the negative control and the buffer group (without RET enzyme) as the blank control, the relative inhibitory activity percentages (i.e., inhibition rates) of different concentrations of the compounds were computed as per the following formula:
as §1, §2, §3, §4
As to `Cc1cc(Nc2cc(C)[nH]n2)nc(-c2ccc(N3CC4CC(C3)N4Cc3ccc(F)cc3)nc2)n1` [Compound 83, 2-(6-(6-(4-fluorobenzyl)-3,6-diazabicyclo[3.1.1]heptan-3-yl)pyridin-3-yl)-6-methyl-N-(5-methyl-1H-pyrazol-3-yl)pyrimidin-4-amine], the inhibition at 0.01 µM stood at 56%. As for `Cc1cc(Nc2cc(C)[nH]n2)nc(-c2ccc(N3CC4CC(C3)N4Cc3ccc(-n4cc(F)cn4)nc3)nc2)c1` [Compound 6, 6′-(6-((6-(4-fluoro-1H-pyrazol-1-yl)pyridin-3-yl)methyl)-3,6-diazabicyclo[3.1.1]heptan-3-yl)-4-methyl-N-(5-methyl-1H-pyrazol-3-yl)-[2,3′-dipyridyl]-6-amine], the inhibition at 0.01 µM came out at 83%.

In the case of `Cc1cc(Nc2cc(C)[nH]n2)nc(-c2ccc(N3CC4CC(C3)N4Cc3ccc(-n4ncc(Cl)c4C)nc3)nc2)n1` [Compound 28′, 2-(6-(6-((6-(4-chloro-5-methyl-1H-pyrazol-1-yl)pyridin-3-yl)methyl)-3,6-diazabicyclo[3.1.1]heptan-3-yl)pyridin-3-yl)-6-methyl-N-(5-methyl-1H-pyrazol-3-yl)pyrimidin-4-amine], the inhibition at 0.01 µM came to 34%.

Still in this experiment, the particulars now being: 100 nM (Table 2); read-out: Inhibition rate on RET-V804M.
As to `COc1cncc(CN2C3CC2CN(c2ccc(-c4nc(C)cc(Nc5cc(C)[nH]n5)n4)cn2)C3)c1` [Compound 18, 2-(6-(6-((5-methoxypyridin-3-yl)methyl)-3,6-diazabicyclo[3.1.1]heptan-3-yl)pyridin-3-yl)-6-methyl-N-(5-methyl-1H-pyrazol-3-yl)pyrimidin-4-amine], the inhibition at 0.1 µM is 70%. In the case of `Cc1ccc(CN2C3CC2CN(c2ccc(-c4nc(C)cc(Nc5cc(C)[nH]n5)n4)cn2)C3)cn1` [Compound 16, 6-methyl-N-(5-methyl-1H-pyrazol-3-yl)-2-(6-(6-((6-methylpyridin-3-yl)methyl)-3,6-diazabicyclo[3.1.1]heptan-3-yl)pyridin-3-yl)pyrimidin-4-amine], the inhibition at 0.1 µM was found to be 92%.

Take `Cc1cc(Nc2cc(C)[nH]n2)nc(-c2ccc(N3CC4CC(C3)N4Cc3cnccc3C)nc2)n1` [Compound 21, 6-methyl-N-(5-methyl-1H-pyrazol-3-yl)-2-(6-(6-((4-methylpyridin-3-yl)methyl)-3,6-diazabicyclo[3.1.1]heptan-3-yl)pyridin-3-yl)pyrimidin-4-amine]: the inhibition at 0.1 µM turned out to be 49%. On the same count and under the same terms, next, `Cc1cc(Nc2cc(C)[nH]n2)nc(-c2ccc(N3CC4CC(C3)N4Cc3cncc(F)c3)nc2)n1` [Compound 98, 2-(6-(6-((5-fluoropyridin-3-yl)methyl)-3,6-diazabicyclo[3.1.1]heptan-3-yl)pyridin-3-yl)-6-methyl-N-(5-methyl-1H-pyrazol-3-yl)pyrimidin-4-amine]: 63%; `Cc1cc(Nc2cc(C)[nH]n2)nc(-c2ccc(N3CC4CC(C3)N4Cc3ccc(-n4cc(CO)cn4)nc3)nc2)n1` [Compound 127, (1-(5-((3-(5-(4-methyl-6-((5-methyl-1H-pyrazol-3-yl)amino)pyrimidin-2-yl)pyridin-2-yl)-3,6-diazabicyclo[3.1.1]heptan-6-yl)methyl)pyridin-2-yl)-1H-pyrazol-4-yl)methanol]: 84%. The same measure, in the same setting: next, `COc1ccc(CN2C3CC2CN(c2ccc(-c4nc(C)cc(Nc5cc(C)[nH]n5)n4)cn2)C3)nc1` [Compound 67, 2-(6-(6-((5-methoxypyridin-2-yl)methyl)-3,6-diazabicyclo[3.1.1]heptan-3-yl)pyridin-3-yl)-6-methyl-N-(5-methyl-1H-pyrazol-3-yl)pyrimidin-4-amine]: 82%; `COc1ccc(C(=O)N2CCN(c3ccc(-c4nc(C)cc(Nc5cc(C)[nH]n5)n4)cn3)CC2)cn1` [Compound 110, (6-methoxypyridin-3-yl)(4-(5-(4-methyl-6-((5-methyl-1H-pyrazol-3-yl)amino)pyrimidin-2-yl)pyridin-2-yl)piperazin-1-yl)methanone]: 62%.

Turning to `COc1ccc(CC(=O)N2CCN(c3ccc(-c4nc(C)cc(Nc5cc(C)[nH]n5)n4)cn3)CC2)cn1` [Compound 111, 2-(6-methoxypyridin-3-yl)-1-(4-(5-(4-methyl-6-((5-methyl-1H-pyrazol-3-yl)amino)pyrimidin-2-yl)pyridin-2-yl)piperazin-1-yl)ethan-1-one], the inhibition at 0.1 µM came to 46%. Same read-out and setting: next, `Cc1cc(Nc2cc(C)[nH]n2)nc(-c2ccc(N3CC4CC(C3)N4Cc3ccc(C(F)(F)F)nc3)nc2)n1` [Compound 118, 6-methyl-N-(5-methyl-1H-pyrazol-3-yl)-2-(6-(6-((6-(trifluoromethyl)pyridin-3-yl)methyl)-3,6-diazabicyclo[3.1.1]heptan-3-yl)pyridin-3-yl)pyrimidin-4-amine]: 74%; `COc1ccc(CN2CCN(c3ccc(-c4nc(C)cc(Nc5cc(C)[nH]n5)n4)cn3)CC2)cn1` [Compound 49, 2-(6-(4-((6-methoxypyridin-3-yl)methyl)piperazin-1-yl)pyridin-3-yl)-6-methyl-N-(5-methyl-1H-pyrazol-3-yl)pyrimidin-4-amine]: 75%; `Cc1cc(Nc2cc(C)[nH]n2)nc(-c2ccc(N3CC4CC(C3)N4Cc3ccc(-n4cc(CF)cn4)nc3)nc2)n1` [Compound 126, 2-(6-(6-((6-(4-fluoromethyl-1H-pyrazol-1-yl)pyridin-3-yl)methyl)-3,6-diazabicyclo[3.1.1]heptan-3-yl)pyridin-3-yl)-6-methyl-N-(5-methyl-1H-pyrazol-3-yl)pyrimidin-4-amine]: 82%. The same measure, in the same setting: to `Cc1cc(Nc2cc(C)[nH]n2)nc(-c2ccc(N3CC4CC(C3)N4Cc3ccc(C#N)nc3)nc2)n1` [Compound 117, 5-((3-(5-(4-methyl-6-((5-methyl-1H-pyrazol-3-yl)-amino)pyrimidin-2-yl)pyridin-2-yl)-3,6-diazabicyclo[3.1.1]heptan-6-yl)methyl)-2-cyanopyridine] belongs 76%.

Staying with this experiment, now noted: read-out: Inhibition rate on RET-V804M.
Take `COc1ccc(C(C)N2C3CC2CN(c2ccc(-c4nc(C)cc(Nc5cc(C)[nH]n5)n4)cn2)C3)cc1` (stereo not drawn) [Compound 50, 2-(6-(6-(1-(4-methoxyphenyl)ethyl)-3,6-diazabicyclo[3.1.1]heptan-3-yl)pyridin-3-yl)-6-methyl-N-(5-methyl-1H-pyrazol-3-yl)pyrimidin-4-amine]: the inhibition at 0.1 µM came out at 50%. The same measure, in the same setting: next, `Cc1cc(Nc2cc(C)[nH]n2)nc(-c2ccc(N3CC4CC(C3)N4Cc3ccc(C#N)cc3)nc2)n1` [Compound 85, 4-((3-(5-(4-methyl-6-((5-methyl-1H-pyrazol-3-yl)-amino)pyrimidin-2-yl)pyridin-2-yl)-3,6-diazabicyclo[3.1.1]heptan-6-yl)methyl)benzonitrile]: 77%.

With `Cc1cc(Nc2cc(C)[nH]n2)nc(-c2ccc(N3CC4CC(C3)N4Cc3ccc(C(F)(F)F)cc3)nc2)n1` [Compound 84, 6-methyl-N-(5-methyl-1H-pyrazol-3-yl)-2-(6-(6-(4-(trifluoromethyl)benzyl)-3,6-diazabicyclo[3.1.1]heptan-3-yl)pyridin-3-yl)pyrimidin-4-amine], the inhibition at 0.1 µM was determined as 72%.

Still in this experiment, the particulars now being: read-out: The IC50 (nM) for inhibiting V804M.
On to `Cc1ccc(OC2CCN(c3ccc(-c4nc(C)cc(Nc5cc(C)[nH]n5)n4)cn3)CC2)cn1` [Compound 119, 6-methyl-N-(5-methyl-1H-pyrazol-3-yl)-2-(6-(4-((6-methylpyridin-3-yl)oxy)piperidin-1-yl)pyridin-3-yl)pyrimidin-4-amine], for which the IC50 turned out to be 14.2 ± 1.27 nM.
